Patent US20050042354A1, “Antiradicals and fat compositions, foods, drinks, drugs or feeds containing the antiradicals” (priority 2001, published 2005)

Assay: Trolox relative activity in ORAC method (antiradical activity in serum)
Type: biochemical, human
Settings: for Trolox relative activity: ORAC method, human blood serum, 60-μM 4-vinyl-2,6-dimethoxyphenol, 300-μM α-tocopherol
Procedure: 2) Trolox Relative Activity in ORAC Method
10 μl of a test substance in a designated concentration, or
6-hydroxy-2,5,7,8-tetramethylchroman-2-carboxylic acid (Trolox) solution is added to 10 μl of 200-fold diluted solution of human blood serum. Then, 180 μl of 3.73-mg/l β-phycoerythrin (β-PE) is added, and the mixture is preheated at 37° C. for 1 min. 10 μl of 80-mM 2,2′-azobis(2-amidinopropane)-dihydrochloride (AAPH) is then added, and the reaction is started at 37° C. For the dilution of the serum or reagents added, phosphate buffer (75 mM, pH 7.0) is used. As a control, this phosphate buffer is used in place of the test substance. Fluorescence intensity (Ex: 540 nm, Em: 565 nm) of the reactant is measured every 2 min after the start of the reaction, and the relationship between the fluorescence intensity (y-axis) and the time x-axis) is plotted on a graph. The area (S) enclosed by the obtained curve, x and y axes is calculated for the test substance, Trolox and the control. The antiradical activity of the test substance in the serum is calculated as a Trolox relative activity using the following equation. Trolox relative activity=(Test substance's S−Control's S)/(Trolox's S−Control's S)×(Trolox's concentration/Test substance's concentration) In this testing system, AAPH generates peroxyradicals, and the peroxyradicals oxidize the substrate β-PE, which results in a reaction to eliminate fluorescence of β-PE. Trolox is a derivative of water-soluble vitamin E, and is used as a standard substance of the antioxidation reaction in this testing system. These reaction substrate and standard substance are those used in an oxygen radical absorbance capacity (ORAC) method. The ORAC method is widely used to obtain antioxydation and antiradical activities of biological samples and natural materials as values relative to those of a standard substance, in an easy and accurate manner. (5) Rancimat Test

Question: With `C=Cc1cc(OC)c(O)c(OC)c1` [Example 7, 4-vinyl-2,6-dimethoxyphenol] as the compound, how does the Trolox relative activity read?
Answer: 0.58

Question: What about the “Trolox relative activity in serum relative to α-tocopherol” value (in serum) of the same compound?
Answer: approximately 7 folds

Question: With `Cc1c(C)c2c(c(C)c1O)CC[C@@](C)(CCC[C@H](C)CCC[C@H](C)CCCC(C)C)O2` [compound 1, α-tocopherol, reference compound] as the compound, how does the Trolox relative activity read?
Answer: 0.08
